Test: Tissue concentrations of TMC278 in beagle dog (biopsy on day 232) after single intramuscular administration
Assay type: in vivo, beagle dogs
Conditions: dog No. 16924, day 232 after single IM 2.5 mg/kg, aqueous 30% DMA/50% PEG400 solution; for concentration at 232 day: male, beagle, intramuscular
Description: On day 232 post-dose, a biopsy was performed (dog No. 16924 only) on the iliac lymph node (at the side of injection), on a muscle from the non-injected hind leg and on a muscle at the side of injection after ultrasonographic examination. All tissue samples were protected from light as much as possible and stored on melting ice. All samples were protected from light and stored at ≤−18° C. Finally, an additional blood sample was collected on day 272. This sample was processed and analysed similarly to the other blood samples. The concentration of TMC278 in dog tissue samples was also determined by a qualified research LC-MS/MS method. Tissues samples were homogenized with a 10-fold dilution in Milli-Q water by means of an Ultra-Turrax. The tissue homogenates (200 μl aliquot) were extracted by adding of 600 μl methanol (containing […]). After vortexing and centrifugation, the supernatant was transferred to an HPLC vial and 20 μl aliquots were injected. The LC and the MS conditions were the same as described above. The lower limit of quantification was 10.0 ng/g tissue. Samples were protected from light during the bioanalytical analysis.

[1] = muscle at the side of injection
[2] = muscle from the non-injected hind leg

Q: With Cc1cc(C=CC#N)cc(C)c1Nc1ccnc(Nc2ccc(C#N)cc2)n1 [TMC278, 4-[[4-[[4-(2-cyanoethenyl)-2,6-dimethylphenyl]amino]-2-pyrimidinyl]-amino]benzonitrile] as the molecule, how does the concentration at 232 day (iliac lymph node at the side of injection) read?
A: 72.6 ng/g

Q: And the concentration at 232 day [1]?
A: < 10 ng/g

Q: And the concentration at 232 day [2]?
A: < 10 ng/g

Q: What about the tissue concentration [1] of the same molecule?
A: <10.0 ng/g

Q: And the tissue concentration [2]?
A: <10.0 ng/g
